The results in this text go back to ChEMBL document CHEMBL1201862, “PubChem BioAssay data set” (2004).

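Five concentrations, 48 hours, 96-well plates. The concentration for 50% growth inhibition is given as GI50.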 The source made the active and inactive calls. No stated cut-off is given here; in the data, active = GI50 up to about 1.1 µM and inactive = higher.

Test systems include SR; CCRF-CEM; PC-3; OVCAR-3; ACHN; A498; EKVX; SF-295; MOLT-4; SK-MEL-5; K562; MDA-MB-435; NCI-H460; SF-539; OVCAR-8; SW-620; HL-60; NCI/ADR-RES; NCI-H226; MDA-MB-231.
Assay in all cases: growth of human tumour cells (NCI), 48 h

For `CCC(=O)Nc1ccc(N2C(=O)C(Cl)C2c2ccc(SC)cc2)cc1` (configuration not stated), the GI50 with SR is 40.6 µM (inactive); in the assay with CCRF-CEM, 26.9 µM (inactive); in the assay on PC-3, > 100 µM (inactive); in the assay on OVCAR-3 it was 81.5 µM (inactive); with ACHN it was > 100 µM (inactive); in the assay with A498, > 100 µM (inactive). Further, the GI50 is 52.7 µM (inactive) in the assay with EKVX; > 100 µM (inactive) in the assay with SF-295; 67.8 µM (inactive) in the assay with MOLT-4; 20.7 µM (inactive) in the assay with SK-MEL-5; 72.9 µM (inactive) with K562; 63.7 µM (inactive) in the assay on MDA-MB-435. Besides, the GI50 in the assay on NCI-H460 was 32.8 µM (inactive); in the assay with SF-539, 26.9 µM (inactive); with OVCAR-8, > 100 µM (inactive); in the assay with SW-620 it was > 100 µM (inactive); in the assay with HL-60, 78.3 µM (inactive); in the assay with NCI/ADR-RES, > 100 µM (inactive). In addition, the GI50 with NCI-H226 is 31.5 µM (inactive).
On to `CCc1nc2c(O)ccc(O)c2nc1C`, for which the GI50 in the assay with SR was 18.2 µM (inactive); in the assay on CCRF-CEM, 2.9 µM (inactive); in the assay with OVCAR-3, 14.7 µM (inactive); in the assay with ACHN, 10.7 µM (inactive); with A498, 20.9 µM (inactive); in the assay on EKVX it was 17.3 µM (inactive). The GI50 with SF-295 was 20 µM (inactive); in the assay on MOLT-4, 3.65 µM (inactive); in the assay on SK-MEL-5, 17.5 µM (inactive); in the assay with K562 it was 4.08 µM (inactive); in the assay on NCI-H460, 19.2 µM (inactive); in the assay with SF-539 it was 17 µM (inactive). Further, the GI50 in the assay with OVCAR-8 is 10 µM (inactive); with SW-620, 2.15 µM (inactive); in the assay on HL-60, 2.93 µM (inactive); in the assay on NCI-H226, 15.8 µM (inactive).
As to `O=C1C(Cl)C(c2cc(Br)ccc2O)N1n1cnc2ccccc2c1=O` (configuration not stated), the GI50 in the assay with SR is 2.74 µM (inactive); in the assay on CCRF-CEM, 3.28 µM (inactive); in the assay with OVCAR-3 it was 6.93 µM (inactive); with ACHN, 11.8 µM (inactive); in the assay with A498 it was 65.8 µM (inactive); in the assay with EKVX it was 3.4 µM (inactive). For the same compound, the GI50 in the assay on SF-295 is 16.8 µM (inactive); with MOLT-4 it was 2.75 µM (inactive); in the assay with SK-MEL-5, 16.8 µM (inactive); in the assay on K562, 5.27 µM (inactive); with NCI-H460, 6.62 µM (inactive); in the assay with SF-539 it was 18.5 µM (inactive). For the same compound, the GI50 is 12.1 µM (inactive) with OVCAR-8, 10 µM (inactive) in the assay on SW-620, 1.72 µM (inactive) in the assay on HL-60 and 6.87 µM (inactive) in the assay with NCI-H226.
Take `Cc1cc(NCCCCCCCCNc2cc(C)nc3cc(N)ccc23)c2ccc(N)cc2n1`: the GI50 in the assay on SR is 10.9 µM (inactive); in the assay with CCRF-CEM, 3.13 µM (inactive); in the assay with OVCAR-3, 14.9 µM (inactive); in the assay with ACHN it was 37.7 µM (inactive); in the assay on A498, 39.6 µM (inactive); in the assay on EKVX, 22.2 µM (inactive). The GI50 was 18.2 µM (inactive) in the assay with SF-295; > 100 µM (inactive) in the assay with MOLT-4; 10.9 µM (inactive) with SK-MEL-5; 1.95 µM (inactive) with K562; 15.7 µM (inactive) with NCI-H460; 17 µM (inactive) in the assay on SF-539. Besides, the GI50 with OVCAR-8 is 17.2 µM (inactive); in the assay with HL-60, 0.566 µM (active); with NCI-H226, 24.4 µM (inactive).
In the case of `Fc1ccc(C2SCc3nc4ccccc4n32)c(F)c1` (configuration not stated), the GI50 with SR was 34.6 µM (inactive); in the assay on CCRF-CEM it was 51.6 µM (inactive); with OVCAR-3 it was 51.1 µM (inactive); with ACHN, 82.4 µM (inactive); in the assay with A498, > 100 µM (inactive); in the assay with EKVX, > 100 µM (inactive). Moreover, the GI50 with SF-295 was 39.4 µM (inactive); with MOLT-4, 30.5 µM (inactive); in the assay on SK-MEL-5, 32.1 µM (inactive); in the assay on K562 it was 34.9 µM (inactive); in the assay with NCI-H460 it was 54 µM (inactive); in the assay on SF-539, > 100 µM (inactive). Also, the GI50 with OVCAR-8 is 79.3 µM (inactive); in the assay on SW-620 it was > 100 µM (inactive); with HL-60 it was 22 µM (inactive); in the assay on NCI-H226, > 100 µM (inactive).
On to `CCOC(=O)C=C1CCC2(CC1)OCCO2`, for which the GI50 with SR, with CCRF-CEM, with OVCAR-3, in the assay on ACHN, in the assay on A498 and with SF-295 was > 100 µM (inactive) throughout. Further, the GI50 in the assay on MOLT-4, in the assay on SK-MEL-5, in the assay with K562, with NCI-H460, in the assay on SF-539 and in the assay on OVCAR-8 was > 100 µM (inactive) in each case. Besides, the GI50 in the assay on SW-620, in the assay with HL-60 and with NCI-H226 was > 100 µM (inactive) each time.
Take `CCN(CC)Cc1nc2sc3c(c2c(=O)n1-c1ccccc1)CCCC3`: the GI50 in the assay with SR is 34.5 µM (inactive); with CCRF-CEM it was 28.4 µM (inactive); with PC-3, 15.9 µM (inactive); in the assay with OVCAR-3, 17.2 µM (inactive); in the assay on ACHN it was 20 µM (inactive); in the assay with A498, 15.3 µM (inactive). Besides, the GI50 in the assay on EKVX was 19.8 µM (inactive); in the assay with SF-295, 23.7 µM (inactive); in the assay with MOLT-4 it was 17.4 µM (inactive); with SK-MEL-5 it was 16.3 µM (inactive); in the assay with K562, 35.2 µM (inactive); with NCI-H460 it was 19.6 µM (inactive). Further, the GI50 is 17.5 µM (inactive) in the assay on OVCAR-8; 16.7 µM (inactive) in the assay on SW-620; 23.3 µM (inactive) in the assay on HL-60; 24.8 µM (inactive) in the assay with NCI/ADR-RES; 15.3 µM (inactive) in the assay on MDA-MB-231; 15.2 µM (inactive) in the assay with NCI-H226.
With `Cc1ccc2c(O)cc(-c3sc4ccccc4c3C)nc2n1`, the GI50 in the assay on CCRF-CEM is 23.9 µM (inactive); in the assay with A498, 22.4 µM (inactive); with EKVX it was 25.5 µM (inactive); with SF-295 it was 17.1 µM (inactive); with MOLT-4, 26.1 µM (inactive); in the assay on K562, 27.1 µM (inactive). For the same compound, the GI50 in the assay with OVCAR-8 was 25.2 µM (inactive); in the assay with NCI/ADR-RES, 17.1 µM (inactive); with MDA-MB-231, 49.5 µM (inactive); in the assay on NCI-H226, 20.4 µM (inactive).
For `CC12OC3CC(O1)C1(C=O)C4CCC5(C)C(c6ccc(=O)oc6)CCC5(O)C4CCC1(C3)O2` (configuration not stated), the GI50 is 0.0498 µM (active) in the assay with SR; 0.0735 µM (active) in the assay with CCRF-CEM; 0.13 µM (active) in the assay on OVCAR-3; 0.0476 µM (active) with ACHN; 0.33 µM (active) in the assay on A498; 0.0986 µM (active) with SF-295. For the same compound, the GI50 in the assay with MOLT-4 was 0.0344 µM (active); in the assay with SK-MEL-5, 0.0895 µM (active); with K562, 0.265 µM (active); in the assay with NCI-H460, 0.0518 µM (active); in the assay on SF-539 it was 0.102 µM (active); in the assay on OVCAR-8, 0.256 µM (active). Besides, the GI50 was 0.177 µM (active) in the assay with SW-620, 0.189 µM (active) in the assay on HL-60 and 0.417 µM (active) with NCI-H226.
With `Oc1ccc(/C=N/c2nccs2)c(O)c1`, the GI50 with PC-3, in the assay with OVCAR-3, in the assay on ACHN, in the assay with EKVX, with SF-295 and with SK-MEL-5 was > 100 µM (inactive) each time. The GI50 in the assay on NCI-H460, in the assay with SF-539, with OVCAR-8, in the assay with NCI/ADR-RES, in the assay with MDA-MB-231 and in the assay with NCI-H226 was > 100 µM (inactive) each time.
